# From the supplement of paper PMC10307832
# Experiments:
# Experiment in all cases: relative viability (nuclei count vs DMSO), 5 days (fraction); higher = more cells survive
# SK-LU-1 = system: SK-LU-1
# In short: (§1)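 Relative viability is defined as nuclei in treated wells over nuclei in vehicle wells. Duplicate plates were run and medians reported. Lung cancer cell lines in 1536-well plates were dosed by pin tool one day after seeding, with one drug or with a fixed anchor-drug dose plus five library-drug doses (not always all listed) in √10 steps, and nuclei were counted after 5 days.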
# NCI-H2405 = system: NCI-H2405
# In short: as §1
# LK-2 = system: LK-2
# In short: as §1
# HCC-827 = system: HCC-827
# In short: as §1
# H3255 = system: H3255
# In short: as §1
# LCLC-97TM1 = system: LCLC-97TM1
# In short: as §1
# NCI-H522 = system: NCI-H522
# In short: as §1
# NCI-H1993 = system: NCI-H1993
# In short: as §1
# NCI-H2170 = system: NCI-H2170
# In short: as §1
# NCI-H1650 = system: NCI-H1650
# In short: as §1
# EPLC-272H = system: EPLC-272H
# In short: as §1
# HOP-62 = system: HOP-62
# In short: as §1
# SW 1573 = system: SW 1573
# In short: as §1
# NCI-H3122 = system: NCI-H3122
# In short: as §1
# NCI-H441 = system: NCI-H441
# In short: as §1
# PC-3 [JPC-3] = system: PC-3 [JPC-3]
# In short: as §1
# ChaGo-K-1 = system: ChaGo-K-1
# In short: as §1
# LU99A = system: LU99A
# In short: as §1
# NCI-H1355 = system: NCI-H1355
# In short: as §1
# EKVX = system: EKVX
# In short: as §1
# LXF-289 = system: LXF-289
# In short: as §1
# UMC-11 = system: UMC-11
# In short: as §1
smiles,measurement,setting,value
CCNC(=O)c1noc(-c2cc(C(C)C)c(O)cc2O)c1-c1ccc(CN2CCOCC2)cc1 [Luminespib] + Nc1ncn([C@H]2C[C@H](O)[C@@H](CO)O2)c(=O)n1 [Decitabine] (partner 2 µM),relative viability,SK-LU-1; first compound 0.002 µM,0.725
same,relative viability,SK-LU-1; first compound 0.006325 µM,0.462
same,relative viability,SK-LU-1; first compound 0.02 µM,0.547
same,relative viability,SK-LU-1; first compound 0.06325 µM,0.198
same,relative viability,SK-LU-1; first compound 0.2 µM,0.216
same,relative viability,NCI-H2405; first compound 0.002 µM,0.79
same,relative viability,NCI-H2405; first compound 0.02 µM,0.627
same,relative viability,NCI-H2405; first compound 0.06325 µM,0.297
same,relative viability,NCI-H2405; first compound 0.2 µM,0.191
same,relative viability,LK-2; first compound 0.002 µM,0.32
same,relative viability,LK-2; first compound 0.006325 µM,0.268
same,relative viability,LK-2; first compound 0.02 µM,0.192
same,relative viability,LK-2; first compound 0.06325 µM,0.0898
same,relative viability,LK-2; first compound 0.2 µM,0.0914
same,relative viability,HCC-827; first compound 0.002 µM,0.36
same,relative viability,HCC-827; first compound 0.006325 µM,0.333
same,relative viability,HCC-827; first compound 0.02 µM,0.285
same,relative viability,HCC-827; first compound 0.06325 µM,0.166
same,relative viability,HCC-827; first compound 0.2 µM,0.147
same,relative viability,H3255; first compound 0.002 µM,0.639
same,relative viability,H3255; first compound 0.02 µM,0.446
same,relative viability,H3255; first compound 0.06325 µM,0.425
same,relative viability,H3255; first compound 0.2 µM,0.222
same,relative viability,LCLC-97TM1; first compound 0.002 µM,0.249
same,relative viability,LCLC-97TM1; first compound 0.006325 µM,0.258
same,relative viability,LCLC-97TM1; first compound 0.06325 µM,0.233
same,relative viability,LCLC-97TM1; first compound 0.2 µM,0.154
same,relative viability,NCI-H522; first compound 0.002 µM,0.626
same,relative viability,NCI-H522; first compound 0.006325 µM,0.631
same,relative viability,NCI-H522; first compound 0.02 µM,0.593
same,relative viability,NCI-H522; first compound 0.06325 µM,0.6
same,relative viability,NCI-H522; first compound 0.2 µM,0.451
same,relative viability,NCI-H1993; first compound 0.002 µM,0.596
same,relative viability,NCI-H1993; first compound 0.006325 µM,0.579
same,relative viability,NCI-H1993; first compound 0.02 µM,0.48
same,relative viability,NCI-H1993; first compound 0.06325 µM,0.573
same,relative viability,NCI-H1993; first compound 0.2 µM,0.371
same,relative viability,NCI-H2170; first compound 0.002 µM,0.468
same,relative viability,NCI-H2170; first compound 0.006325 µM,0.456
same,relative viability,NCI-H2170; first compound 0.06325 µM,0.47
same,relative viability,NCI-H2170; first compound 0.2 µM,0.507
same,relative viability,NCI-H1650; first compound 0.002 µM,0.463
same,relative viability,NCI-H1650; first compound 0.006325 µM,0.565
same,relative viability,NCI-H1650; first compound 0.02 µM,0.267
same,relative viability,NCI-H1650; first compound 0.06325 µM,0.137
same,relative viability,NCI-H1650; first compound 0.2 µM,0.133
same,relative viability,EPLC-272H; first compound 0.002 µM,0.393
same,relative viability,EPLC-272H; first compound 0.006325 µM,0.337
same,relative viability,EPLC-272H; first compound 0.02 µM,0.311
same,relative viability,EPLC-272H; first compound 0.06325 µM,0.282
same,relative viability,EPLC-272H; first compound 0.2 µM,0.106
same,relative viability,HOP-62; first compound 0.002 µM,0.219
same,relative viability,HOP-62; first compound 0.006325 µM,0.297
same,relative viability,HOP-62; first compound 0.02 µM,0.267
same,relative viability,HOP-62; first compound 0.06325 µM,0.223
same,relative viability,HOP-62; first compound 0.2 µM,0.174
same,relative viability,SW 1573; first compound 0.002 µM,0.569
same,relative viability,SW 1573; first compound 0.006325 µM,0.456
same,relative viability,SW 1573; first compound 0.02 µM,0.159
same,relative viability,SW 1573; first compound 0.06325 µM,0.072
same,relative viability,SW 1573; first compound 0.2 µM,0.0827
same,relative viability,NCI-H3122; first compound 0.002 µM,0.474
same,relative viability,NCI-H3122; first compound 0.006325 µM,0.413
same,relative viability,NCI-H3122; first compound 0.02 µM,0.29
same,relative viability,NCI-H3122; first compound 0.06325 µM,0.418
same,relative viability,NCI-H3122; first compound 0.2 µM,0.403
same,relative viability,NCI-H441; first compound 0.002 µM,0.255
same,relative viability,NCI-H441; first compound 0.006325 µM,0.26
same,relative viability,NCI-H441; first compound 0.02 µM,0.184
same,relative viability,NCI-H441; first compound 0.06325 µM,0.155
same,relative viability,NCI-H441; first compound 0.2 µM,0.134
same,relative viability,PC-3 [JPC-3]; first compound 0.002 µM,0.888
same,relative viability,PC-3 [JPC-3]; first compound 0.006325 µM,0.842
same,relative viability,PC-3 [JPC-3]; first compound 0.02 µM,0.705
same,relative viability,PC-3 [JPC-3]; first compound 0.06325 µM,0.397
same,relative viability,PC-3 [JPC-3]; first compound 0.2 µM,0.506
same,relative viability,ChaGo-K-1; first compound 0.002 µM,0.544
same,relative viability,ChaGo-K-1; first compound 0.006325 µM,0.492
same,relative viability,ChaGo-K-1; first compound 0.02 µM,0.528
same,relative viability,ChaGo-K-1; first compound 0.06325 µM,0.522
same,relative viability,ChaGo-K-1; first compound 0.2 µM,0.535
same,relative viability,LU99A; first compound 0.002 µM,0.953
same,relative viability,LU99A; first compound 0.006325 µM,0.781
same,relative viability,LU99A; first compound 0.02 µM,0.5
same,relative viability,LU99A; first compound 0.06325 µM,0.855
same,relative viability,LU99A; first compound 0.2 µM,0.879
same,relative viability,NCI-H1355; first compound 0.002 µM,0.359
same,relative viability,NCI-H1355; first compound 0.006325 µM,0.354
same,relative viability,NCI-H1355; first compound 0.02 µM,0.334
same,relative viability,NCI-H1355; first compound 0.06325 µM,0.346
same,relative viability,NCI-H1355; first compound 0.2 µM,0.243
same,relative viability,EKVX; first compound 0.002 µM,0.38
same,relative viability,EKVX; first compound 0.006325 µM,0.31
same,relative viability,EKVX; first compound 0.02 µM,0.273
same,relative viability,EKVX; first compound 0.06325 µM,0.253
same,relative viability,EKVX; first compound 0.2 µM,0.173
same,relative viability,LXF-289; first compound 0.002 µM,0.397
same,relative viability,LXF-289; first compound 0.006325 µM,0.354
same,relative viability,LXF-289; first compound 0.02 µM,0.424
same,relative viability,LXF-289; first compound 0.06325 µM,0.392
same,relative viability,LXF-289; first compound 0.2 µM,0.367
same,relative viability,UMC-11; first compound 0.002 µM,0.604
same,relative viability,UMC-11; first compound 0.006325 µM,0.569
same,relative viability,UMC-11; first compound 0.02 µM,0.334
same,relative viability,UMC-11; first compound 0.06325 µM,0.56
same,relative viability,UMC-11; first compound 0.2 µM,0.23
